The target in data set [1] is T1, human P-glycoprotein (Homo sapiens, UniProt P08183).
T1 construct: endogenous in cells; host or cells: Caco-2 cell monolayers
Nature of the data set: Interaction with human P-glycoprotein in Caco-2 cell monolayers. The format is in vitro ADME.

The nature of data set [2]: In vitro genetic toxicity studies.
The subject of data set [3] is developing or established type II collagen arthritis. The data set is described as follows: Rat collagen-induced arthritis model, alone or in combination with methotrexate or etanercept. The note with it: 2.5, 5 or 50 mg/kg daily oral, alone or in combination with MTX or etanercept. The format is in vivo. How it is done: Treatment was administered either alone or in combination with the reference compounds MTX, or etanercept. All rats were administered MTX, vehicle 2 (1% CMC in water), or vehicle 1 on days 0-20 in order to keep dose manipulations consistent for all groups. Animals were terminated on day 21. Efficacy evaluation was based on daily ankle caliper measurements, ankle diameter expressed as area under the curve (AUC), and terminal hind paw weights.

Data set [4] deals with PBMCs. The data set is described as follows: LPS induced cytokine production in PBMCs. The format is cell-based, human. How it is done:
These experiments were conducted using PBMCs.

T1 sequence (P08183 whole entry): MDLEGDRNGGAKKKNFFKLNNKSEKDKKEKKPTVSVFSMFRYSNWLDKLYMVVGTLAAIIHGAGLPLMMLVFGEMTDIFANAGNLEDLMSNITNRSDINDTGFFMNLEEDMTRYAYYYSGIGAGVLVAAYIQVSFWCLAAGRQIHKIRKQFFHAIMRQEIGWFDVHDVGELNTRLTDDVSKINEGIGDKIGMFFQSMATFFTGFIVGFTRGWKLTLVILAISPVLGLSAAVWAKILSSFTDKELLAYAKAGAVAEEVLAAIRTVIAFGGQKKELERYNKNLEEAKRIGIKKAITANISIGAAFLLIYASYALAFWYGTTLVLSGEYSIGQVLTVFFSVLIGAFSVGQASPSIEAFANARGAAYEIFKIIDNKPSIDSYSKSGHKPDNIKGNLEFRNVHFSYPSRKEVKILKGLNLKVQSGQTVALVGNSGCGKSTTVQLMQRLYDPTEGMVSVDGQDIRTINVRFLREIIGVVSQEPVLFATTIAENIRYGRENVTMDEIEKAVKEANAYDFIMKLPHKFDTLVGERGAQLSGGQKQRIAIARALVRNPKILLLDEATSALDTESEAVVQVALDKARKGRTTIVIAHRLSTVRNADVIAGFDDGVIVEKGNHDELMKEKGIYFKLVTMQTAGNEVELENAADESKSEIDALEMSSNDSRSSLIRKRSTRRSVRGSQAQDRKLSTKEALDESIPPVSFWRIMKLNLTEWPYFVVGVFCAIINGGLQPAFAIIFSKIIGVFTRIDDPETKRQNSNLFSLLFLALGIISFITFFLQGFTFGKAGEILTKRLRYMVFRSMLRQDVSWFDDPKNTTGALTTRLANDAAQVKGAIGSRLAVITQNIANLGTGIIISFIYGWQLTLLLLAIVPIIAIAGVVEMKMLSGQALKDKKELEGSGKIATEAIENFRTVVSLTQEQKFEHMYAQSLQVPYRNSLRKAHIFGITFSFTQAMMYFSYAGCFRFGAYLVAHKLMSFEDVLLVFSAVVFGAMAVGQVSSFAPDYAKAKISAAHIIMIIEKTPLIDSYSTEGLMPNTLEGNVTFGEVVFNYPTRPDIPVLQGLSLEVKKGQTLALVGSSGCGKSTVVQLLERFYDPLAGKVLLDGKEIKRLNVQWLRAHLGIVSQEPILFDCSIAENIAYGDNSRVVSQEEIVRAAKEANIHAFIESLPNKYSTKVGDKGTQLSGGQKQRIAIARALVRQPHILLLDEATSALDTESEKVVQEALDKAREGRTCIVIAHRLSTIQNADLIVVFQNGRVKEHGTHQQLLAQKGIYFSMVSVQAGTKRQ

Turning to `C[C@H](Nc1ncnc2[nH]cnc12)c1cc2cccc(Cl)c2c(=O)n1-c1ccccc1` [Compound 292], in data set [1], the P-gp substrate status entry is listed as “is a P-gp substrate” and the “inhibition of active transport of other P-gp substrates” value is recorded as “has the potential to inhibit the active transport of other P-gp substrates”. The genetic toxicity entry in data set [2] is reported as “no genetic toxicity”. Besides, in data set [3], the “effects on parameters of developing and established type II collagen arthritis” value was “beneficial effects”; the tolerability entry is reported as “well tolerated”. In addition, in data set [4], the “LPS induced IL-1 production” value was “enhanced”, the “LPS induced IL-6 production” value is given as “enhanced”, the “LPS induced IL-8 production” value is recorded as “did not detectably affect” and the “LPS induced TNF-α production” value is given as “enhanced”.

Source of the values: patent publication US20140120060A1, “TREATMENT OF RHEUMATOID ARTHRITIS AND ASTHMA USING PI3 KINASE INHIBITORS” (INFINITY PHARMACEUTICALS, INC., priority 2012, published 2014).
